Assay results published in patent US10029984B2, “Mono- or di-substituted indole derivatives as dengue viral replication inhibitors” (Janssen Pharmaceuticals, Inc., priority 2015, dated 2018).

What was measured:
DENV-2 16681 strain = experiment: DENV-2 antiviral assay (eGFP-labeled virus in Vero cells); type: cell-based, Dengue virus; conditions: DENV-2 16681 eGFP, MOI 0.5, 3 days
Experimental: The antiviral activity of all the compounds of the invention was tested against DENV-2 16681 strain which was labeled with enhanced green fluorescent protein (eGPF; Table 1). The culture medium consists of minimal essential medium supplemented with 2% of heat-inactivated fetal calf serum, 0.04% gentamycin (50 mg/mL) and 2 mM of L-glutamine. Vero cells, obtained from ECACC, were suspended in culture medium and 25 μL was added to 384-well plates (2500 cells/well), which already contain the antiviral compounds. Typically, these plates contain a 4-fold serial dilution of 9 dilution steps of the test compound at 200 times the final concentration in 100% DMSO (200 nL). In addition, each compound concentration is tested in quadruplicate (final concentration range: 25 μM-0.00038 μM). Finally, each plate contains wells which are assigned as virus controls (containing cells and virus in the absence of compound), cell controls (containing cells in the absence of virus and compound) and medium controls (containing medium in the absence of cells, virus and compounds). To the wells assigned as medium control, 25 μL of culture medium was added instead of Vero cells. Once the cells were added to the plates, the plates were incubated for 30 minutes at room temperature to allow the cells to distribute evenly within the wells. Next, the plates were incubated in a fully humidified incubator (37° C., 5% CO2) until the next day. Then, DENV-2 strain 16681, labeled with eGFP, was added at a multiplicity of infection (MOI) of 0.5. Therefore, 15 μL of virus suspension was added to all the wells containing test compound and to the wells assigned as virus control. In parallel, 15 μL of culture medium was added to the medium and cell controls. Next, the plates were incubated for 3 days in a fully humidified incubator (37° C., 5% CO2). At the day of the read out, the eGFP fluorescence was measured using an automated fluorescence microscope at 488 nm (blue laser). Using an in-house LIMS system, inhibition dose response curves for each compound were calculated and the half maximal effective concentration (EC50) was determined. Therefore, the percent inhibition (I) for every test concentration is calculated using the following formula: I=100*(ST−SCC)/(SVC−SCC); ST, SCC and SVC are the amount of eGFP signal in the test compound, cell control and virus control wells, respectively. The EC50 represents the concentration of a compound at which the virus replication is inhibited with 50%, as measured by a 50% reduction of the eGFP fluorescent intensity compared to the virus control. The EC50 is calculated using linear interpolation.

Vero cells = experiment: in vitro; type: cell-based; conditions: African green monkey
Experimental: (§1) In parallel, the toxicity of the compounds was assessed on the same plates. Once the read-out for the eGFP signal was done, 10 μL of resazurin, a cell viability stain, was added to all wells of the 384-well plates. The resazurin assay is based on the reduction of the blue resazurin by NADH, produced by the cells, into the highly fluorescent product, resorufin. The formation of pink fluorescent resorufin is directly related to the number of viable cells in the well. The plates were incubated for an additional 5 hours in a fully humidified incubator (37° C., 5% CO2). Next, the plates were measured on an Infinite reader (Tecan) using an excitation wavelength of 530 nm. The half maximal cytotoxic concentration (CC50) was also determined, defined as the concentration required to reduce the resazurin conversion by 50% compared to that of the cell control wells. Finally, the selectivity index (SI) was determined for the compounds, which was calculated as followed: SI=CC50/EC50.

DENV-1 strain TC974#666 = experiment: Tetravalent RT-qPCR assay Protocol A, serotype 1; type: cell-based; conditions: Dengue virus, DENV1, 72 h; RT-qPCR serotype 1 TC974#666, Vero cells, day 3
Experimental: (§2) The antiviral activity of the compounds of the invention was tested against DENV-1 strain TC974#666 (NCPV; Table 6), DENV-2 strain 16681 (Table 7), DENV-3 strain H87 (NCPV; Table 8) and DENV-4 strains H241 (NCPV; Table 9) in a RT-qPCR assay. Therefore, Vero cells were infected with either DENV-1, or -2, or -3, or -4 in the presence or absence of test compounds. At day 3 post-infection, the cells were lysed and cell lysates were used to prepare cDNA of both a viral target (the 3′UTR of DENV; table 2) and a cellular reference gene (β-actin, table 2). Subsequently, a duplex real time PCR was performed on a Lightcycler480 instrument. The generated Cp value is inversely proportional to the amount of RNA expression of these targets. Inhibition of DENV replication by a test compound result in a shift of Cp's for the 3′UTR gene. On the other hand, if a test compound is toxic to the cells, a similar effect on β-actin expression will be observed. The comparative ΔΔCp method is used to calculate EC50, which is based on the relative gene expression of the target gene (3′UTR) normalized with the cellular housekeeping gene (β-actin).
(§3) The culture medium consisted of minimal essential medium supplemented with 2% of heat-inactivated fetal calf serum, 0.04% gentamycin (50 mg/mL) and 2 mM of L-glutamine. Vero cells, obtained from ECACC, were suspended in culture medium and 75 μL/well was added in 96-well plates (10000 cells/well), which already contain the antiviral compounds. Typically, these plates contain a 4-fold serial dilution of 9 dilution steps of the test compound at 200 times the final concentration in 100% DMSO (500 nL; final concentration range: 25 μM-0.00038 μM). In addition, each plate contains wells which are assigned as virus controls (containing cells and virus in the absence of compound) and cell controls (containing cells in the absence of virus and compound). Once the cells were added in the plates, the plates were incubated in a fully humidified incubator (37° C., 5% CO2) until the next day. Then, DENV-1 strain TC974#666 at an MOI of 0.6, DENV-2 strain 16681 at an MOI of 0.01, DENV-3 strain H87 at an MOI of 1.0 and DENV-4 strains H241 at an MOI of 0.2 and SG/06K2270DK1/2005 at an MOI of 0.16, were added. Therefore, 25 μL of virus suspension was added to all the wells containing test compound and to the wells assigned as virus control. In parallel, 25 μL of culture medium was added to the cell controls. Next, the plates were incubated for 3 days in a fully humidified incubator (37° C., 5% CO2). After 3 days, the supernatant was removed from the wells and the cells were washed twice with ice-cold PBS (˜100 μL). The cell pellets within the 96-well plates were stored at −80° C. for at least 1 day. Next, RNA was extracted using the Cells-to-CT™ lysis kit, according to the manufacture's guideline (Applied Biosystems). The cell lysates can be stored at −80° C. or immediately used in the reverse transcription step.
(§4) In preparation of the reverse transcription step, mix A (table 3A) was prepared and 7.57 μL/well was dispensed in a 96-well plate. After addition of 5 μL of the cell lysates, a five minute denaturation step at 75° C. was performed (table 3B). Afterwards, 7.43 μL of mix B was added (table 3C) and the reverse transcription step was initiated (table 3D) to generate cDNA.
(§5) Finally, a RT-qPCR mix was prepared, mix C (table 4A), dispensed in 96-well LightCycler qPCR plates to which 3 μL of cDNA was added and the qPCR was performed according to the conditions in table 4B on a LightCycler 480. Using the LightCycler software and an in-house LIMS system, dose response curves for each compound were calculated and the half maximal effective concentration (EC50) and the half maximal cytotoxic concentration (CC50) were determined.

DENV-2 strain 16681 = experiment: Tetravalent RT-qPCR assay Protocol A, serotype 2; type: cell-based; conditions: Dengue virus, DENV2, 72 h; RT-qPCR serotype 2 16681, Vero cells, day 3
Experimental: as §2, §3, §4, §5

DENV-3 strain H87 = experiment: Tetravalent RT-qPCR assay Protocol A, serotype 3; type: cell-based; conditions: Dengue virus, DENV3, 72 h; RT-qPCR serotype 3 H87, Vero cells, day 3
Experimental: as §2, §3, §4, §5

DENV-4 strains H241 = experiment: Tetravalent RT-qPCR assay Protocol A, serotype 4; type: cell-based; conditions: Dengue virus, DENV4, 72 h; RT-qPCR serotype 4 H241, Vero cells, day 3
Experimental: as §2, §3, §4, §5

in vitro [1] = type: cell-based; conditions: African green monkey, CC50
Experimental: as §2, §3, §5

in vitro [2] = type: cell-based; conditions: African green monkey, CC50; remark: listed apart in the source
Experimental: as §1

| SMILES | EC50 (DENV-2 16681 strain; listed as 6A*) | CC50 (Vero cells) | EC50 (DENV-1 strain TC974#666) | EC50 (DENV-2 strain 16681) | EC50 (DENV-3 strain H87) | EC50 (DENV-4 strains H241) | CC50 at 3 days (in vitro [1]) | EC50 (DENV-2 16681 strain; listed as 3A*) | EC50 (DENV-2 16681 strain; listed as 12A*) | CC50 (in vitro [2]) | EC50 (DENV-2 16681 strain; listed as 8A*) | EC50 (DENV-2 16681 strain; listed as 15A*) | EC50 (DENV-2 16681 strain; listed as 18A*) | EC50 (DENV-2 16681 strain; listed as 1A*) | EC50 (DENV-2 16681 strain; listed as 5B*) |
| --- | --- | --- | --- | --- | --- | --- | --- | --- | --- | --- | --- | --- | --- | --- | --- |
| COc1cc(NC(C(=O)c2c[nH]c3c(F)cc(C)cc23)c2ccc(F)cc2OC)cc(S(C)(=O)=O)c1 (single isomer, unassigned) [Enantiomer 6A, 2-(4-fluoro-2-methoxyphenyl)-1-(7-fluoro-5-methyl-1H-indol-3-yl)-2-((3-methoxy-5-(methylsulfonyl)phenyl)amino)ethanone] | 2.7 nM | 5000 nM | 9.7 nM | 3.48 nM | 123 nM | 239 nM | 4610 nM | – | – | – | – | – | – | – | – |
| COc1cc(NC(C(=O)c2c[nH]c3c(C)c(Cl)ccc23)c2ccc(F)cc2OC)cc(S(C)(=O)=O)c1 (single isomer, unassigned) [Enantiomer 3A, 1-(6-chloro-7-methyl-1H-indol-3-yl)-2-(4-fluoro-2-methoxyphenyl)-2-((3-methoxy-5-(methylsulfonyl)phenyl)amino)ethanone] | – | 4800 nM | 7.18 nM | 0.285 nM | 58.6 nM | 121 nM | 3910 nM | 0.3 nM | – | – | – | – | – | – | – |
| COc1cc(NC(C(=O)c2c[nH]c3c(Cl)c(OC)ccc23)c2ccc(F)cc2OC)cc(S(C)(=O)=O)c1 (single isomer, unassigned) [Enantiomer 12A, 1-(7-chloro-6-methoxy-1H-indol-3-yl)-2-(4-fluoro-2-methoxyphenyl)-2-((3-methoxy-5-(methylsulfonyl)phenyl)amino)ethanone] | – | – | 14 nM | 0.25 nM | 73.8 nM | 261 nM | – | – | 0.42 nM | > 25000 nM | – | – | – | – | – |
| COc1cc(NC(C(=O)c2c[nH]c3c(C)cc(F)cc23)c2ccc(F)cc2OC)cc(S(C)(=O)=O)c1 (single isomer, unassigned) [Enantiomer 8A, 2-(4-fluoro-2-methoxyphenyl)-1-(5-fluoro-7-methyl-1H-indol-3-yl)-2-((3-methoxy-5-(methylsulfonyl)phenyl)amino)ethanone] | – | 5100 nM | 6.83 nM | 1.27 nM | 82.1 nM | 248 nM | 4400 nM | – | – | – | 1 nM | – | – | – | – |
| COc1cc(NC(C(=O)c2c[nH]c3ccc(C)cc23)c2ccc(F)cc2OC)cc(S(C)(=O)=O)c1 (single isomer, unassigned) [Enantiomer 15A, 2-(4-fluoro-2-methoxyphenyl)-2-((3-methoxy-5-(methylsulfonyl)phenyl)amino)-1-(5-methyl-1H-indol-3-yl)ethanone] | – | 5400 nM | 3.51 nM | 1.02 nM | 22.1 nM | 91 nM | > 2500 nM | – | – | – | – | 0.8 nM | – | – | – |
| COc1cc(NC(C(=O)c2c[nH]c3ccc(OC(F)(F)F)cc23)c2ccc(F)cc2OC)cc(S(C)(=O)=O)c1 (single isomer, unassigned) [Enantiomer 18A, 2-(4-fluoro-2-methoxyphenyl)-2-((3-methoxy-5-(methylsulfonyl)phenyl)amino)-1-(5-(trifluoromethoxy)-1H-indol-3-yl)ethanone] | – | 3100 nM | 0.357 nM | 0.14 nM | 7.54 nM | 18.2 nM | 3010 nM | – | – | – | – | – | 0.086 nM | – | – |
| COc1cc(NC(C(=O)c2c[nH]c3cc(F)ccc23)c2ccc(F)cc2OC)cc(S(C)(=O)=O)c1 (single isomer, unassigned) [Enantiomer 1A, 1-(6-fluoro-1H-indol-3-yl)-2-(4-fluoro-2-methoxyphenyl)-2-((3-methoxy-5-(methylsulfonyl)phenyl)amino)ethanone] | – | 5900 nM | 5.18 nM | 0.83 nM | 49.6 nM | 165 nM | 3520 nM | – | – | – | – | – | – | 0.88 nM | – |
| COc1cc(NC(C(=O)c2c[nH]c3cc(OC)ccc23)c2ccc(F)cc2OC)cc(S(C)(=O)=O)c1 (single isomer, unassigned) [Enantiomer 5B, 2-(4-fluoro-2-methoxyphenyl)-1-(6-methoxy-1H-indol-3-yl)-2-((3-methoxy-5-(methylsulfonyl)phenyl)amino)ethanone] | – | > 13000 nM | 8.89 nM | 1.23 nM | 100 nM | 186 nM | – | – | – | – | – | – | – | – | 1 nM |
